Reference: publication PMC8016998, “Identification of potential therapeutic antimicrobial peptides against Acinetobacter baumannii in a mouse model of pneumonia” (Scientific Reports, 2021)
No end group written: not given here.

How the values were obtained:
[1] = test system: MDRAB clinical strain K2; type: cell-based, Acinetobacter baumannii; settings: 24 h
[2] = test system: MDRAB clinical strain AE6; type: cell-based, Acinetobacter baumannii; settings: 24 h
Protocol: (§1) MBC were determined by extending the MIC procedure in sterilized 96-well polypropylene microtiter plates according to the broth microdilution guidelines of the Clinical and Laboratory Standards Institute with some modification[47]. […] In addition, 10 µL was drawn from each well with no visible turbidity onto LB agar plates and incubated for 24 h at 37 °C. The lowest concentration showing no visible growth on agar subculture was used as the MBC value. All experiments were performed in triplicate.

[3] = test system: MDRAB clinical strain AF93; type: cell-based, Acinetobacter baumannii; settings: 24 h
Protocol: as §1

[4] = test system: MDRAB clinical strain AE5; type: cell-based, Acinetobacter baumannii; settings: 24 h
[5] = test system: MDRAB clinical strain O59; type: cell-based, Acinetobacter baumannii; settings: 24 h
[6] = test system: MDRAB clinical strain AK29; type: cell-based, Acinetobacter baumannii; settings: 24 h
Protocol: as §1

[7] = test system: MDRAB clinical strain AF12; type: cell-based, Acinetobacter baumannii; settings: 24 h
Protocol: as §1

[8] = test system: MDRAB clinical strain AS40; type: cell-based, Acinetobacter baumannii; settings: 24 h
Protocol: as §1

[9] = test system: MDRAB clinical strain U80; type: cell-based, Acinetobacter baumannii; settings: 24 h
[10] = test system: MDRAB clinical strain Y92; type: cell-based, Acinetobacter baumannii; settings: 24 h
Protocol: as §1

[11] = test system: MDRAB clinical strain U95; type: cell-based, Acinetobacter baumannii; settings: 24 h
Protocol: as §1

[12] = test system: MDRAB clinical strain AZ93; type: cell-based, Acinetobacter baumannii; settings: 24 h
Protocol: as §1

[13] = test system: MDRAB clinical strain D29; type: cell-based, Acinetobacter baumannii; settings: 24 h
[14] = test system: MDRAB clinical strain J49; type: cell-based, Acinetobacter baumannii; settings: 24 h
[15] = test system: Acinetobacter baumannii 17,978; type: cell-based; settings: 17,978, 24 h;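 further: CLSI broth microdilution in 96-well polypropylene plates, MBC taken as lowest concentration giving no growth when clear wells were subcultured on LB agar for 24 h at 37 °C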
[16] = test system: MDRAB clinical strain AF11; type: cell-based, Acinetobacter baumannii; settings: 24 h
Protocol: as §1

[17] = test system: MDRAB clinical strain AG51; type: cell-based, Acinetobacter baumannii; settings: 24 h
Protocol: as §1

[18] = test system: MDRAB clinical strain AL87; type: cell-based, Acinetobacter baumannii; settings: 24 h
Protocol: as §1

[19] = test system: MDRAB clinical strain AN10; type: cell-based, Acinetobacter baumannii; settings: 24 h
[20] = test system: MDRAB clinical strain AK61; type: cell-based, Acinetobacter baumannii; settings: 24 h
[21] = test system: MDRAB clinical strain L87; type: cell-based, Acinetobacter baumannii; settings: 24 h
[22] = test system: Acinetobacter baumannii 19,606; type: cell-based; settings: 19,606, 24 h
[23] = test system: MDRAB clinical strains; type: cell-based, Acinetobacter baumannii; settings: 24 h
[24] = test system: MDRAB clinical strain AO80; type: cell-based, Acinetobacter baumannii; settings: 24 h
Protocol: as §1

[25] = test system: MDRAB clinical strain W11; type: cell-based, Acinetobacter baumannii; settings: 24 h
Protocol: as §1

GRFKRFRKKFKKLFKKLSPVIPLLHLG [BMAP-27]
MBC [1]: 32 µg/mL | MIC [1]: 16 µg/mL | MBC [2]: 16 µg/mL | MIC [2]: 16 µg/mL | MBC [3]: 8 µg/mL | MIC [3]: 8 µg/mL | MBC [4]: 16 µg/mL | MIC [4]: 8 µg/mL | MBC [5]: 16 µg/mL | MIC [5]: 16 µg/mL | MBC [6]: 8 µg/mL | MIC [6]: 4 µg/mL | MBC [7]: 8 µg/mL | MIC [7]: 8 µg/mL | MBC [8]: 8 µg/mL | MIC [8]: 8 µg/mL | MBC [9]: 16 µg/mL | MIC [9]: 8 µg/mL | MBC [10]: 8 µg/mL | MIC [10]: 8 µg/mL | MBC [11]: 16 µg/mL | MIC [11]: 16 µg/mL | MBC [12]: 8 µg/mL | MIC [12]: 8 µg/mL | MBC [13]: 16 µg/mL | MIC [13]: 16 µg/mL | MBC [14]: 8 µg/mL | MIC [14]: 8 µg/mL | MBC [15]: 16 µg/mL | MIC [15]: 16 µg/mL | MBC [16]: 16 µg/mL | MIC [16]: 8 µg/mL | MBC [17]: 8 µg/mL | MIC [17]: 4 µg/mL | MBC [18]: 8 µg/mL | MIC [18]: 8 µg/mL | MBC [19]: 4 µg/mL | MIC [19]: 4 µg/mL | MBC [20]: 8 µg/mL | MIC [20]: 8 µg/mL | MBC [21]: 16 µg/mL | MIC [21]: 16 µg/mL | MBC [22]: 8 µg/mL | MIC [22]: 8 µg/mL | MIC [23]: 4 to 16 µg/mL | MBC [24]: 8 µg/mL | MIC [24]: 8 µg/mL | MBC [25]: 16 µg/mL | MIC [25]: 16 µg/mL

GWGSFFKKAAHVGKHVGKAALTHYL-NH2 [Pleurocidin]
MBC [1]: 32 µg/mL | MIC [1]: 16 µg/mL | MBC [2]: 16 µg/mL | MIC [2]: 16 µg/mL | MBC [3]: 16 µg/mL | MIC [3]: 8 µg/mL | MBC [4]: 16 µg/mL | MIC [4]: 16 µg/mL | MBC [5]: 16 µg/mL | MIC [5]: 16 µg/mL | MBC [6]: 16 µg/mL | MIC [6]: 8 µg/mL | MBC [7]: 8 µg/mL | MIC [7]: 8 µg/mL | MBC [8]: 8 µg/mL | MIC [8]: 8 µg/mL | MBC [9]: 16 µg/mL | MIC [9]: 16 µg/mL | MBC [10]: 8 µg/mL | MIC [10]: 8 µg/mL | MBC [11]: 32 µg/mL | MIC [11]: 32 µg/mL | MBC [12]: 8 µg/mL | MIC [12]: 8 µg/mL | MBC [13]: 32 µg/mL | MIC [13]: 16 µg/mL | MBC [14]: 16 µg/mL | MIC [14]: 16 µg/mL | MBC [15]: 16 µg/mL | MIC [15]: 16 µg/mL | MBC [16]: 16 µg/mL | MIC [16]: 8 µg/mL | MBC [17]: 8 µg/mL | MIC [17]: 8 µg/mL | MBC [18]: 8 µg/mL | MIC [18]: 8 µg/mL | MBC [19]: 16 µg/mL | MIC [19]: 16 µg/mL | MBC [20]: 16 µg/mL | MIC [20]: 16 µg/mL | MBC [21]: 32 µg/mL | MIC [21]: 32 µg/mL | MBC [22]: 16 µg/mL | MIC [22]: 16 µg/mL | MBC [23]: 8 to 32 µg/mL | MIC [23]: 8 to 32 µg/mL | MBC [24]: 8 µg/mL | MIC [24]: 8 µg/mL | MBC [25]: 16 µg/mL | MIC [25]: 16 µg/mL

GWKKWFNRAKKVGKTVGGLAVDHYL-NH2 [NRC12]
MBC [1]: 32 µg/mL | MIC [1]: 16 µg/mL | MBC [2]: 16 µg/mL | MIC [2]: 16 µg/mL | MBC [3]: 16 µg/mL | MIC [3]: 16 µg/mL | MBC [4]: 16 µg/mL | MIC [4]: 16 µg/mL | MBC [5]: 32 µg/mL | MIC [5]: 32 µg/mL | MBC [6]: 8 µg/mL | MIC [6]: 8 µg/mL | MBC [7]: 16 µg/mL | MIC [7]: 8 µg/mL | MBC [8]: 32 µg/mL | MIC [8]: 32 µg/mL | MBC [9]: 32 µg/mL | MIC [9]: 32 µg/mL | MBC [10]: 16 µg/mL | MIC [10]: 16 µg/mL | MBC [11]: 32 µg/mL | MIC [11]: 32 µg/mL | MBC [12]: 32 µg/mL | MIC [12]: 32 µg/mL | MBC [13]: 16 µg/mL | MIC [13]: 16 µg/mL | MBC [14]: 16 µg/mL | MIC [14]: 16 µg/mL | MBC [15]: 16 µg/mL | MIC [15]: 16 µg/mL | MBC [16]: 16 µg/mL | MIC [16]: 16 µg/mL | MBC [17]: 8 µg/mL | MIC [17]: 8 µg/mL | MBC [18]: 8 µg/mL | MIC [18]: 8 µg/mL | MBC [19]: 8 µg/mL | MIC [19]: 8 µg/mL | MBC [20]: 32 µg/mL | MIC [20]: 32 µg/mL | MBC [21]: 32 µg/mL | MIC [21]: 32 µg/mL | MBC [22]: 16 µg/mL | MIC [22]: 16 µg/mL | MBC [23]: 8 to 32 µg/mL | MIC [23]: 8 to 32 µg/mL | MBC [24]: 32 µg/mL | MIC [24]: 32 µg/mL | MBC [25]: 16 µg/mL | MIC [25]: 16 µg/mL

GYNYAKKLANLAKKFANALW-NH2 [GW-H1a]
MBC [1]: 16 µg/mL | MIC [1]: 16 µg/mL | MBC [2]: 16 µg/mL | MIC [2]: 8 µg/mL | MBC [3]: 8 µg/mL | MIC [3]: 8 µg/mL | MBC [4]: 16 µg/mL | MIC [4]: 16 µg/mL | MBC [5]: 32 µg/mL | MIC [5]: 16 µg/mL | MBC [6]: 8 µg/mL | MIC [6]: 8 µg/mL | MBC [7]: 16 µg/mL | MIC [7]: 8 µg/mL | MBC [8]: 8 µg/mL | MIC [8]: 8 µg/mL | MBC [9]: 32 µg/mL | MIC [9]: 16 µg/mL | MBC [10]: 8 µg/mL | MIC [10]: 8 µg/mL | MBC [11]: 32 µg/mL | MIC [11]: 16 µg/mL | MBC [12]: 8 µg/mL | MIC [12]: 8 µg/mL | MBC [13]: 32 µg/mL | MIC [13]: 16 µg/mL | MBC [14]: 8 µg/mL | MIC [14]: 8 µg/mL | MBC [15]: 32 µg/mL | MIC [15]: 32 µg/mL | MBC [16]: 16 µg/mL | MIC [16]: 8 µg/mL | MBC [17]: 8 µg/mL | MIC [17]: 8 µg/mL | MBC [18]: 8 µg/mL | MIC [18]: 8 µg/mL | MBC [19]: 8 µg/mL | MIC [19]: 8 µg/mL | MBC [20]: 8 µg/mL | MIC [20]: 8 µg/mL | MBC [21]: 32 µg/mL | MIC [21]: 16 µg/mL | MBC [22]: 16 µg/mL | MIC [22]: 16 µg/mL | MBC [23]: 8 to 32 µg/mL | MIC [23]: 8 to 16 µg/mL | MBC [24]: 8 µg/mL | MIC [24]: 8 µg/mL | MBC [25]: 16 µg/mL | MIC [25]: 16 µg/mL
